Data as given in article PMC9032718, “Eltrombopag as an Allosteric Inhibitor of the METTL3-14 Complex Affecting the m^6A Methylation of RNA in Acute Myeloid Leukemia Cells” (Pharmaceuticals, 2022).

Key:
DOT1L = target: T1, DOT1L (Homo sapiens, UniProt Q8TEK3); test: Methyltransferase selectivity panel (MT HotSpot radioisotope assay), DOT1L; type: biochemical; details: 10 μM eltrombopag, DOT1L
T1 construct: purchased Reaction Biology (Malvern, PA, USA), contract assay
Method: The selectivity profile of eltrombopag was investigated by testing the level of inhibition in a methyltransferase panel. The inhibition of 7 […] methyltransferase was tested at Reaction Biology (Malvern, PA, USA) using a gold standard radioisotope-based MT assay (MT HotSpot^TM) with 10 μM of eltrombopag in duplicate.

MOLM-13 cells [1] = test: Anti-proliferative assay (EZ-cytox), MOLM-13; type: cell-based; details: Homo sapiens, MOLM-13, 72 h
Method: (§1) The MOLM-13, MOLM-14, HL60, MV4-11, and THP-1 cells were seeded in white 96-well clear bottomed plates with 100 μL of medium (5000 cells/well). The plated cells were treated with serially diluted compounds and incubated for 72 h at 37 °C. After incubation, 10 μL of EZ-cytox kit reagent from the EZ-cytox cell viability assay kit (DaeiLab, Seoul, Korea) was added to each well and then incubated for 3 h at 37 °C. The absorbance of metabolically active cells was measured at a wavelength of 450 nm using a Victor multilabel reader (PerkinElmer). The GI50 values were calculated by nonlinear regression analysis using OriginPro 9.1 software (OriginLab).

THP-1 cells = test: Anti-proliferative assay (EZ-cytox), THP-1; type: cell-based; details: Homo sapiens, THP-1, 72 h
Method: as §1

[2] = system: m^6A/A on poly-A+-enriched mRNA of MOLM-13 cells; test: Quantitative analysis of m^6A level on poly-A+-enriched mRNA by mass spectrometry; type: cell-based; details: Homo sapiens
Method: The MOLM-13 cells were seeded in 10 cm^2 dishes at a density of 1.5 × 10^6 cells/mL with 10 mL of complete medium. After 24 h, the plated cells were treated with the vehicle (DMSO) or serial dilutions of eltrombopag and incubated for 24 h. Following incubation in the cell culture incubator, total RNA was extracted using TRIsure^TM (Bioline, Brisbane, Australia) according to the manufacturer’s instructions. Then, poly-A^+-enriched mRNA was purified from the extracted total RNA using the Magnosphere^TM ultrapure mRNA purification kit (Takara, Shiga, Japan). One microgram of mRNA was digested to the nucleosides using 2 units of nuclease P1 (NEB) and dephosphorylated using 1 unit of alkaline phosphatase (NEB) at 37 °C for 2 h.
The produced nucleosides were detected by reversed-phase high-performance liquid chromatography on an ACQUITY BEH C18 column (1.7 μm, 2.1 mm × 50 mm; Waters) coupled with mass spectrometry detection using an EVOQ Elite ER LC-TQ (Bruker). The adenosine and m^6A were quantified using MRM transition as follows: m/z = 267.9 -> 136.1 and m/z = 282.1 -> 150.1, respectively. (Retention time 5 min). The m^6A/A nucleoside ratio of the eltrombopag-treated sample was normalized to the corresponding value of the DMSO treated negative control. The inhibition curves were plotted using OriginPro 9.1 software (OriginLab) and fitted using nonlinear regression analysis.

MOLM-13 cells [3] = test: Combinatorial analysis of AML drugs with eltrombopag (EZ-cytox, Synergyfinder); type: cell-based; details: Homo sapiens, MOLM-13; for inhibition at 1.5 µM: MOLM-13, eltrombopag alone 1,500 nM; for inhibition at 3 µM: MOLM-13, eltrombopag alone 3,000 nM; for inhibition at 6 µM: MOLM-13, eltrombopag alone 6,000 nM; for inhibition at 12 µM: MOLM-13, eltrombopag alone 12,000 nM
Method: The MOLM-13 cells were seeded in white 96-well clear bottomed plates with 50 μL of medium (5000 cells/well). The plated cells were treated with serially diluted eltrombopag and current AML drugs, including venetoclax, cytarabine, gilteritinib, and sorafenib, to a final volume of 100 μL and incubated for 72 h at 37 °C. After incubation, 10 μL of EZ-cytox kit reagent from the EZ-cytox cell viability assay kit (DaeiLab) was added to each well and then incubated for 3 h at 37 °C. The absorbance of metabolically active cells was measured at a wavelength of 450 nm using a Victor multilabel reader (PerkinElmer). The synergy scores of each combination were quantified by the HAS model, ZIP model, Loewe additivity model, and Bliss independence models using Synergyfinder software. Positive or negative synergy scores obtained through these models represent synergy and antagonism, respectively.

[4] = system: m^6A methylation of MOLM-13 transcriptome; test: m^6A-seq and sequencing data analysis (differential methylation peaks, motifs, annotation, GO enrichment); type: cell-based, human
Method: mRNA was purified using a GenElute™ mRNA Miniprep Kit (SIGMA, MRN10-1KT, St. Louis, MO, USA) according to the manufacturer’s protocol. Briefly, the total RNA was mixed with 2× Binding Solution and oligo(dT) beads, vortexed, and left for 10 min at room temperature. The beads:mRNA complex was passed through a GenElute spin filter/collection tube and washed twice with Wash Solution. The mRNA was eluted in an Elution Solution incubated at 70 °C.
m^6A-seq was performed using the EpiMark® N^6-Methyladenosine Enrichment Kit (NEB, E1610S). Briefly, 25 μL of Dynabeads™ Protein G (Invitrogen, 10004D) and 1 μL of N^6-Methyladenosine Antibody were incubated in a 4 °C rotator for 2 h. The purified mRNA was fragmented at 95 °C for 10 min in a fragmentation buffer (100 mM Tris (pH 8.0), 8 mM MgCl2) with spike-in control RNA (m^6A and unmodified, 0.1 fmol of each RNA). The fragmented RNA was concentrated with RNA Clean & Concentrator™-5 (ZYMO […], R1014, Irvine, CA, USA) and then 5% was saved as the input. The remaining 95% of the fragmented RNA was added to the beads/antibody complex. RNA was eluted in Buffer RLT (QIAGEN, 79216, Hilden, Germany), followed by ethanol precipitation and was used for sequencing library construction. All sequencing experiments were performed in triplicate via Novaseq. Adapter trimming and QC were performed using Trim Galore. Reads were mapped to hg38 by HISAT2 [56], and exomePeak and HOMER [58] were used to analyze the differential methylation peaks, motifs, and gene annotations.

T1 sequence (Q8TEK3 whole entry): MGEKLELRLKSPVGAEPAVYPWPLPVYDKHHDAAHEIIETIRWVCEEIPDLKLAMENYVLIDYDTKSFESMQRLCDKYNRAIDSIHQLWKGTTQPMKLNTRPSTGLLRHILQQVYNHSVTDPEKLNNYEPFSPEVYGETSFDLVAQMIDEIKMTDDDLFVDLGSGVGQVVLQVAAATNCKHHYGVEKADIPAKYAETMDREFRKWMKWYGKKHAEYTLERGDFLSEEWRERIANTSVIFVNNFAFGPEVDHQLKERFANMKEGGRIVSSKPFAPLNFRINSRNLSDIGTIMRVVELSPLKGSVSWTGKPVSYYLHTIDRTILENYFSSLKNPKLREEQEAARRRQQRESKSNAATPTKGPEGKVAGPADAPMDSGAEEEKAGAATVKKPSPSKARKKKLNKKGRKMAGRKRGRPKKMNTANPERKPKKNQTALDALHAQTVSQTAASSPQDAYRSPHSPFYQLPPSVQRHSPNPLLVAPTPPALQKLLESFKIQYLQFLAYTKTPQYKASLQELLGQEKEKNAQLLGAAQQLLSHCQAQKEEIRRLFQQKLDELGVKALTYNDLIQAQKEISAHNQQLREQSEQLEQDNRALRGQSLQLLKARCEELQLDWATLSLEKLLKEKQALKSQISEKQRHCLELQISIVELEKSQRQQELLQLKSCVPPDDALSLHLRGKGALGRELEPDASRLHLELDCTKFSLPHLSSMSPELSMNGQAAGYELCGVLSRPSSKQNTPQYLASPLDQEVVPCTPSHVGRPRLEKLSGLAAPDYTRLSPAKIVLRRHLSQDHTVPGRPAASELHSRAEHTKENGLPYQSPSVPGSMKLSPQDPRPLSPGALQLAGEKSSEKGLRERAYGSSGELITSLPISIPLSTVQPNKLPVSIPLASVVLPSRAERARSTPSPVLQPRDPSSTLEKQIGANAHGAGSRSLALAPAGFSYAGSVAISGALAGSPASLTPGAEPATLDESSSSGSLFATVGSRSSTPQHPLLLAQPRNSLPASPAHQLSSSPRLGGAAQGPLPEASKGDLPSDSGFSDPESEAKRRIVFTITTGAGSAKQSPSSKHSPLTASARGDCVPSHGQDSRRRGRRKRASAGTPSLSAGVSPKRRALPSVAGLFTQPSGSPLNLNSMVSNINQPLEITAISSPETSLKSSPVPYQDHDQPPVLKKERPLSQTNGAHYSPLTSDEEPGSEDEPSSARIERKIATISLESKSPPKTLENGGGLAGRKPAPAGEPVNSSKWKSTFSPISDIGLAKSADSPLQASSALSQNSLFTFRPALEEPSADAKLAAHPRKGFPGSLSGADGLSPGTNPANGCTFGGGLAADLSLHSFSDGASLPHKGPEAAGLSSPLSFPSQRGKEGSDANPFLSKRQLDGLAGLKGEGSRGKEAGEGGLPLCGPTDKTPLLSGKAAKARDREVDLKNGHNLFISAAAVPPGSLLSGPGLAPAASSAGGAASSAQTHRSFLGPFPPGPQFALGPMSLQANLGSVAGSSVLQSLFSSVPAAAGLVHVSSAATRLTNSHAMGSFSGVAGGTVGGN

With CC1=NN(c2ccc(C)c(C)c2)C(=O)/C1=N\Nc1cccc(-c2cccc(C(=O)O)c2)c1O [Eltrombopag] the remaining activity at 10 µM (DOT1L) was 90 ± 2.8%, the GI50 (MOLM-13 cells [1]) was 8.28 µM and the GI50 (THP-1 cells) was 22.3 ± 0.4 µM. It also gave an inhibition at 40 µM ([2]; MOLM-13, 40 μM, 24 h, read-out: maximum m^6A inhibition) of 50%, an IC50 ([2]; MOLM-13, 24 h treatment, read-out: IC50 of m^6A/A reduction on poly-A+-enriched mRNA) of 17.3 ± 3.5 µM and an inhibition at 1.5 µM (MOLM-13 cells [3]; cytarabine matrix (panel C)) of 9.02 ± 5.05%. The inhibition at 1.5 µM (MOLM-13 cells [3]; venetoclax matrix (panel A)) was 13 ± 2.13%, the inhibition at 3 µM (MOLM-13 cells [3]; cytarabine matrix (panel C)) was 24.8 ± 2.76% and the inhibition at 3 µM (MOLM-13 cells [3]; venetoclax matrix (panel A)) was 30 ± 5.01%. For the same compound, the inhibition at 6 µM (MOLM-13 cells [3]; cytarabine matrix (panel C)) was 61.6 ± 1.03%, the inhibition at 6 µM (MOLM-13 cells [3]; venetoclax matrix (panel A)) was 69.4 ± 2.33% and the inhibition at 12 µM (MOLM-13 cells [3]; cytarabine matrix (panel C)) was 93.83 ± 0.61%. For the same compound, the inhibition at 12 µM (MOLM-13 cells [3]; venetoclax matrix (panel A)) was 94.91 ± 0.86%, the “number of differential m^6A methylation sites” value ([4]; MOLM-13, 25 μM eltrombopag) was 10,723 and the “share of differential m^6A sites hypomethylated” value ([4]; MOLM-13, 25 μM eltrombopag) was 71%. The share of hypermethylation ([4]; MOLM-13, 25 μM eltrombopag) was “about 30%”, the “share of hypomethylated genes that are noncoding-RNA (ncRNA)” value ([4]; eltrombopag-treated MOLM-13) was 17% and the “share of hypomethylated genes that are protein-coding” value ([4]; eltrombopag-treated MOLM-13) was ~ 80%. The “share of hypomethylated genes that are pseudogenes” value ([4]; eltrombopag-treated MOLM-13) was 3%.
